{
  "source": "patent US7741520B2",
  "about": "“Sulfonanilide analogs as selective aromatase modulators (SAMs)” (The Ohio State University Research Foundation, priority 2006, dated 2010)",
  "key": {"[1]": {"test_system": "aromatase activity in SK-BR-3 breast cancer cells", "experiment": "Tritiated water-release assay in SK-BR-3 cells (additional compounds)", "type": "cell-based, human", "details": "for IC50: dose-response (FIG. 13), read-out: IC50 (μM), suppression of aromatase activity in SK-BR-3 breast cancer cells", "method": "Cell Culture. AR and SK-BR-3 cells were obtained from ATCC (Rockville, Md.). SK-BR-3 cells were maintained in phenol red-free custom media (MEM, Earle's salts, 1.5× amino acids, 2× non-essential amino acids, L-glutamine, 1.5× vitamins, Gibco BRL) supplemented with 10% fetal bovine serum (FBS), 2 mM L-glutamine and 20 mg/L gentamycin. […] Fetal bovine serum was heat inactivated for 30 min in a 56° C. water bath before use. Cell cultures were grown at 37° C., in a humidified atmosphere of 5% CO2 in a Hereaus CO2 incubator. For all experiments, cells were plated in 6 well plates and grown to subconfluency. Before treatment, the media was changed to a defined one containing DMEM/F12 media (Sigma) with 1.0 mg/mL human albumin (OSU Hospital Pharmacy), 5.0 mg/L human transferin and 5.0 mg/L bovine insulin.\nTritiated water-release assay in JAR and SK-BR-3 cell lines. Measurement of aromatase enzyme activity was based on the tritium water release assay. Cells in six well plates were treated with 0.1% DMSO (control), and inhibitors at the indicated concentrations. After 24 hours, the cells were incubated 3 hours (SK-BR-3 cells) or 1 hour (JAR cells) with fresh media along with 100 nM [1β-^3H]-androst-4-ene-3,17-dione (1 μCi). Subsequently, the reaction mixture was removed, and proteins were precipitated using 10% trichloroacetic acid at 42° C. for 20 min. After a brief centrifugation, the media was extracted three times with an equal amount of chloroform to remove remaining substrate and further treated with dextran-treated charcoal. After centrifugation, a 250-μl aliquot containing the product was counted in 5 ml of liquid scintillation mixture. Results were corrected for blanks and for the cell contents of culture flasks, and results were expressed as picomoles of ^3H2O formed per hour incubation time per million live cells (pmol/h/10^6 cells). To determine the amount of cells in each flask, the cells were lysed and analyzed using the diphenylamine DNA assay adapted to a 96-well plate. IC50 sigmoidal dose-response data were analyzed with Microsoft Excel and the Graphpad Prism (Version 3.0) program.\nDiphenylamine DNA Assay To determine the amount of viable cells in each flask, the cells were lysed with 0.5N NaOH aqueous solution and analyzed using the diphenylamine DNA assay adapted to a 96-well plate. DNA standards (0-30 μg) were prepared using double-stranded DNA reconstituted in PBS and added in triplicates directly to the wells. A uniform cell suspension was prepared from the 6 well plate in 300 μl 0.5N NaOH aqueous solution, and 60 μl of the unknown samples were added in triplicates to separate wells. […] This solution (60 μl) was added to each well along with 100 μl of a 4% diphenylamine solution in glacial acetic acid. The plates were incubated at 37° C. for 24 hours. After centrifugation, 100 μl supernatant of each well was transferred to a new 96 well plate, and the OD595 was measured using a microplater reader. The DNA concentration was determined by extrapolation to the standard curve and the amount of cells/well was calculated using the equation: 1 cell≈7 pg DNA."}, "[2]": {"test_system": "SK-BR-3 cells", "experiment": "Cell viability analysis (MTT assay) in SK-BR-3 cells", "type": "cell-based, human", "details": "10 μM (FIG. 15)", "method": "Cell Viability Analysis. The effect of nimesulides derivatives on SK-BR-3 cell viability was assessed by using the 3-(4,5-dimethylthiazol-2-yl)-2,5-diphenyl-2H-tetrazolium bromide assay in six replicates. Cells were grown in custom media in 96-well, flat-bottomed plates for 24 h, and were exposed to various concentrations of nimesulide derivatives dissolved in DMSO (final concentration ≦0.1%) in define media for different time intervals. Controls received DMSO vehicle at a concentration equal to that in drug-treated cells. The medium was removed, replaced by 200 μl of 0.5 mg/ml of 3-(4,5-dimethylthiazol-2-yl)-2,5-diphenyl-2H-tetrazolium bromide in fresh media, and cells were incubated in the CO2 incubator at 37° C. for 2 h. Supernatants were removed from the wells, and the reduced 3-(4,5-dimethylthiazol-2-yl)-2,5-diphenyl-2H-tetrazolium bromide dye was solubilized in 200 μl/well DMSO. Absorbance at 570 nm was determined on a plate reader."}},
  "data": [
    {"smiles": "Cc1ccc(COc2cc([N+](=O)[O-])ccc2N(C)S(C)(=O)=O)cc1", "note": "[Compound 30c, N-methyl-N-[2-(4′-methylbenzyloxy)-4-nitrophenyl]methanesulfonamide]", "values": [
      {"measurement": "IC50", "setting": "[1]", "value": "2.33 ± 0.66", "unit": "µM"},
      {"measurement": "cell cytotoxicity (MTT)", "setting": "[2]", "value": "did not cause significant cell cytotoxicity"}
    ]},
    {"smiles": "CN(c1ccc([N+](=O)[O-])cc1OCc1ccc(F)cc1)S(C)(=O)=O", "note": "[Compound 33c, N-methyl-N-[2-(4′-fluorobenzyloxy)-4-nitrophenyl]methanesulfonamide]", "values": [
      {"measurement": "IC50", "setting": "[1]", "value": "1.78 ± 0.63", "unit": "µM"},
      {"measurement": "cell cytotoxicity (MTT)", "setting": "[2]", "value": "did not cause significant cell cytotoxicity"}
    ]},
    {"smiles": "CN(c1ccc([N+](=O)[O-])cc1OCc1ccc2ccccc2c1)S(C)(=O)=O", "note": "[Compound 28c, N-methyl-N-[2-(β-naphthylmethoxy) 4-nitrophenyl]methanesulfonamide]", "values": [
      {"measurement": "IC50", "setting": "[1]", "value": "2.68 ± 0.91", "unit": "µM"},
      {"measurement": "cell cytotoxicity (MTT)", "setting": "[2]", "value": "did not cause significant cell cytotoxicity"}
    ]},
    {"smiles": "CN(c1ccc([N+](=O)[O-])cc1OCc1ccccc1)S(C)(=O)=O", "note": "[Compound 26f, N-methyl-N-(2-benzyloxy-4-nitrophenyl) methanesulfonamide]", "values": [
      {"measurement": "IC50", "setting": "[1]", "value": "0.81 ± 0.29", "unit": "µM"},
      {"measurement": "cell cytotoxicity (MTT)", "setting": "[2]", "value": "did not cause significant cell cytotoxicity"}
    ]},
    {"smiles": "CN(c1ccc([N+](=O)[O-])cc1OCc1ccccc1-c1ccccc1)S(C)(=O)=O", "note": "[Compound 29c, N-methyl-N-[2-(2′-phenylbenzyloxy)-4-nitrophenyl]methanesulfonamide]", "values": [
      {"measurement": "IC50", "setting": "[1]", "value": "0.33 ± 0.15", "unit": "µM"},
      {"measurement": "increase in activity compared with nimesulide", "setting": "[1]; from IC50 values", "value": "eighty fold increase"},
      {"measurement": "cell cytotoxicity (MTT)", "setting": "[2]", "value": "did not cause significant cell cytotoxicity"}
    ]},
    {"smiles": "CN(c1ccc([N+](=O)[O-])cc1OCc1ccc([N+](=O)[O-])cc1)S(C)(=O)=O", "note": "[Compound 27c, N-methyl-N-[2-(4′-nitrobenzyloxy)-4-nitrophenyl]methanesulfonamide]", "values": [
      {"measurement": "IC50", "setting": "[1]", "value": "0.49 ± 0.14", "unit": "µM"},
      {"measurement": "cell cytotoxicity (MTT)", "setting": "[2]", "value": "did not cause significant cell cytotoxicity"}
    ]}
  ]
}
